{
  "source": "patent US3932471A",
  "about": "“Azide” (priority 1973, dated 1976)",
  "format_in_all_cases": "in vivo",
  "key": {"[1]": {"system": "housefly (Musca domestica)", "experiment": "Housefly spray test (HF)", "conditions": "72 h, contact activity rating, 50% mortality, three days", "description": "(§1) The compounds are evaluated for biological activity against the following representative pests: Mexican bean beetle (Epilachna varivestis), Southern army worm (Prodenia eridania), housefly (Musca domestica), bean aphid (Aphis fabae), and red spider mite (Tetranychus sp.). The last two pests are treated both by contact and systemic application.\n(§2) For purposes of comparison, results obtained with known Compound 7472, Compound 7577, and aldicarb are included in the test results. Each test compound is rated using the following scale:\nThis test determines the insecticidal activity of the compound being tested against adult houseflies, Musca domestica. Stock formulations containing 500 ppm of each test chemical are prepared using the procedure described in Example 15 and are diluted to obtain the appropriate lower concentrations.\nTen adult flies are placed in a cylindrical screen cage 11/2 by 4 inches fabricated from 20-mesh stainless steel screening and are sprayed with 50 ml of the stock or diluted formulation. The flies are supplied food and drink from a dextrose solution by draping a paper wick over the outside of the screen cylinder and are able to feed and drink ad libitum. Percent mortality obtained is determined three days after treatment. Results of this test are shown in Table 7 as HF (housefly spray test)."}, "[2]": {"system": "Southern corn rootworm (Diabrotica undecimpunctata howardi)", "experiment": "Soil activity against Southern corn rootworm", "conditions": "120 h", "description": "Activity of Compound 7268 Against Southern Corn Rootworm\nThe test organism is a strain of Southern corn rootworm (Diabrotica undecimpunctata howardi) resistant to chlorinated hydrocarbon insecticides and the test compound is Compound 7268. Duplicate samples of sand-soil mixtures are treated with appropriate volumes of test formulation to give the desired dosages. The sand-soil samples are in covered paper cups, and several hours after drenching, all cups are given a thorough shaking to provide complete and uniform mixing of the chemical throughout the soil. One day after treatment, two corn seedlings and five rootworms are placed into each cup and the lids replaced. Five days later, mortality is determined."}, "[3]": {"system": "Mexican Bean Beetle Larvae", "experiment": "Residual systemic activity against Mexican bean beetle larvae", "conditions": "Epilachna varivestis", "description": "Residual Systemic Activity of Compound 7268 Against Mexican Bean Beetle Larvae\nThree furrows are opened in soil contained in 8 × 10 × 3 inch fiber pans and 12 Pinto bean seeds are evenly distributed in each furrow. The test compound is Compound 7268. Appropriate volumes of test formulation to give the desired dosages are applied over the seeds in the open furrows, and the furrows are immediately closed. At the indicated weekly intervals, one leaf is harvested from each row, placed onto water agar in a plastic Petri dish, and infested with 10 one-day-old bean beetle larvae. Mortality is determined three days later."}, "[4]": {"system": "Lygus Bug", "experiment": "Systemic test against Lygus bug", "description": "(§3) Systemic Test of Compound 7268 Against Lygus Bug and Spotted Cucumber Beetle\n(§4) The techniques used are essentially the same for the systemic tests described above in Example 15. The test compound is Compound 7268. There is one Sieva bean plant per pot and five adult insects are caged on each plant. One plant is used for each test species."}, "[5]": {"system": "Southern army worm (Prodenia eridania)", "experiment": "Southern army worm spray test (AW)", "conditions": "72 h; contact activity rating, 50% mortality, three days", "description": "as §1, §2\nSouthern Army Worm Spray Test\nPaired fully expanded primary leaves excised from Scarlet runner bean plants are maintained in plastic tubes containing water and sprayed with the test formulation prepared as described in Example 15. After the spray deposit on the leaves is dry, the paired leaves are separated. One leaf is placed onto 1.5 percent water agar and infested with 10 newly hatched Southern army worm larvae. The covered test receptacle is held at 72° F for three days and then the percent mortality is determined. Results of this test are shown in Table 7 as AW (Southern army worm spray test)."}, "[6]": {"system": "Spotted Cucumber Beetle", "experiment": "Systemic test against spotted cucumber beetle", "conditions": "Diabrotica undecimpunctata", "description": "as §3, §4"}, "[7]": {"system": "melon aphid (Aphis gosyppi)", "experiment": "Systemic activity against melon aphid", "conditions": "cucumber seedlings", "description": "Systemic Activity of Compound 7268 Against Melon Aphid\nThe techniques used are essentially the same as for the systemic tests described above in Example 15. The test plants are cucumber seedlings; the test compound is Compound 7268; and the pest is the melon aphid (Aphis gosyppi)."}},
  "data": [
    {"smiles": "CNC(=O)ON=C(CSC)C(C)(C)C", "note": "[Compound 7268, 3,3-dimethyl-2-methylcarbamyloximino-1-methylthiobutane]", "values": [
      {"measurement": "LC50", "setting": "[1]", "value": "250 to 500", "unit": "µg/mL"},
      {"measurement": "mortality at 1 lb/6\" A", "setting": "[2]", "value": 90, "unit": "%"},
      {"measurement": "mortality at 1.25 lb/6\" A", "setting": "[2]", "value": 100, "unit": "%"},
      {"measurement": "mortality at 2.5 lb/6\" A", "setting": "[2]", "value": 100, "unit": "%"},
      {"measurement": "mortality at 280.212 g/ha", "setting": "[3]; 504 h", "value": 100, "unit": "%"},
      {"measurement": "mortality at 560.425 g/ha", "setting": "[3]; 504 h", "value": 100, "unit": "%"},
      {"measurement": "mortality at 1120.85 g/ha", "setting": "[3]; 504 h", "value": 100, "unit": "%"},
      {"measurement": "mortality at 280.212 g/ha", "setting": "[3]; 1176 h", "value": 100, "unit": "%"},
      {"measurement": "mortality at 560.425 g/ha", "setting": "[3]; 1176 h", "value": 100, "unit": "%"},
      {"measurement": "mortality at 1120.85 g/ha", "setting": "[3]; 1176 h", "value": 100, "unit": "%"},
      {"measurement": "mortality at 280.212 g/ha", "setting": "[3]; 1680 h", "value": 100, "unit": "%"},
      {"measurement": "mortality at 560.425 g/ha", "setting": "[3]; 1680 h", "value": 100, "unit": "%"},
      {"measurement": "mortality at 1120.85 g/ha", "setting": "[3]; 1680 h", "value": 95, "unit": "%"},
      {"measurement": "mortality at 280.212 g/ha", "setting": "[3]; 1848 h", "value": 95, "unit": "%"},
      {"measurement": "mortality at 560.425 g/ha", "setting": "[3]; 1848 h", "value": 70, "unit": "%"},
      {"measurement": "mortality at 1120.85 g/ha", "setting": "[3]; 1848 h", "value": 95, "unit": "%"},
      {"measurement": "% Mortality", "setting": "[4]; 0.5 lb/A, 3 days", "value": 0, "unit": "%"},
      {"measurement": "% Mortality", "setting": "[4]; 0.5 lb/A, 4 days", "value": 60, "unit": "%"},
      {"measurement": "% Mortality", "setting": "[4]; 0.5 lb/A, 6 days", "value": 80, "unit": "%"},
      {"measurement": "% Mortality", "setting": "[4]; 1 lb/A, 3 days", "value": 80, "unit": "%"},
      {"measurement": "% Mortality", "setting": "[4]; 1 lb/A, 4 days", "value": 80, "unit": "%"},
      {"measurement": "% Mortality", "setting": "[4]; 1 lb/A, 6 days", "value": 100, "unit": "%"},
      {"measurement": "% Mortality", "setting": "[4]; 2 lb/A, 3 days", "value": 100, "unit": "%"},
      {"measurement": "% Mortality", "setting": "[4]; 2 lb/A, 4 days", "value": 100, "unit": "%"},
      {"measurement": "% Mortality", "setting": "[4]; 2 lb/A, 6 days", "value": 100, "unit": "%"},
      {"measurement": "LC50", "setting": "[5]", "value": "> 500", "unit": "µg/mL"},
      {"measurement": "mortality at 560.425 g/ha", "setting": "[6]; 72 h", "value": 20, "unit": "%"},
      {"measurement": "mortality at 1120.85 g/ha", "setting": "[6]; 72 h", "value": 30, "unit": "%"},
      {"measurement": "mortality at 2241.7 g/ha", "setting": "[6]; 72 h", "value": 60, "unit": "%"},
      {"measurement": "mortality at 560.425 g/ha", "setting": "[6]; 96 h", "value": 40, "unit": "%"},
      {"measurement": "mortality at 1120.85 g/ha", "setting": "[6]; 96 h", "value": 100, "unit": "%"},
      {"measurement": "mortality at 2241.7 g/ha", "setting": "[6]; 96 h", "value": 100, "unit": "%"},
      {"measurement": "mortality at 560.425 g/ha", "setting": "[6]; 144 h", "value": 80, "unit": "%"},
      {"measurement": "mortality at 1120.85 g/ha", "setting": "[6]; 144 h", "value": 100, "unit": "%"},
      {"measurement": "mortality at 2241.7 g/ha", "setting": "[6]; 144 h", "value": 100, "unit": "%"},
      {"measurement": "% Control", "setting": "[7]; 0.062 lb/A", "value": 100, "unit": "%"},
      {"measurement": "% Control", "setting": "[7]; 0.125 lb/A", "value": 100, "unit": "%"},
      {"measurement": "% Control", "setting": "[7]; 0.25 lb/A", "value": 100, "unit": "%"},
      {"measurement": "% Control", "setting": "[7]; 0.5 lb/A", "value": 100, "unit": "%"}
    ]}
  ]
}
